Our source for the Kd values is patent US20240108738A1, “BICYCLIC PEPTIDE LIGANDS SPECIFIC FOR NK CELLS” (Bicycle Tx Limited, priority 2021, published 2024).

One may read the Kd as the constant that tells how readily two partners part at equilibrium.

Molecules are shown by their SMILES. Read-outs that look alike come from different tables or passages of the source. Numbered stars: 1 amine (or outer) side, 2 acyl side, 3 side chain; on linkers, the order of the positions; unused ones are H or OH. Bridge positions count the residues as written; N and C are the ends. Square brackets hold non-standard residues; d marks the D form. Peptide text beside a SMILES is read from it. * marks the point of attachment. TATA = O=C(CC[*:1])N1CN(C(=O)CC[*:2])CN(C(=O)CC[*:3])C1; Biotin = O=C1N[C@H]2[C@H](CS[C@H]2CCCCC(=O)*)N1; X1 = C(c1nc(C[*:2])nc(C[*:3])n1)[*:1]; Sar = CNCC(=O)O

One experiment concerns the target CD16a (V Variant) (Homo sapiens, UniProt P08637, F176V). Description: FcγRIII (CD16a) SPR (Method A and/or Method B), V variant. It is filed as binding.
A further experiment concerns the target CD16a (F Variant) (Homo sapiens, UniProt P08637). In words: FcγRIII (CD16a) SPR (Method A and/or Method B), F variant. It is filed as binding.
Setting [1] is: SPR Method A and/or B, Table 6B, read-out: Kd (nM) (V Variant).
Setting [2] is: SPR Method A and/or B, Table 6B, read-out: Kd (nM) (F Variant).

Sequence of CD16a (V Variant) (P08637 17-208 F176V): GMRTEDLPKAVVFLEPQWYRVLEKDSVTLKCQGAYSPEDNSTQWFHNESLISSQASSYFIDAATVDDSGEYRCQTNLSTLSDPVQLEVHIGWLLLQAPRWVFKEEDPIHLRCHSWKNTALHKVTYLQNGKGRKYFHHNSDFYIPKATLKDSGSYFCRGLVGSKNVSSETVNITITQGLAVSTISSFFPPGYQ

With `CC(C)C[C@@H]1NC(=O)CNC(=O)[C@H](C(C)C)NC(=O)[C@@H](N)CSCc2nc3nc(n2)CSC[C@H](NC(=O)[C@@H]2CCCN2C(=O)CNC(=O)[C@H](CC(C)C)NC(=O)[C@H](CCC(=O)O)NC(=O)[C@H](CCC(=O)O)NC1=O)C(=O)N[C@@H](CO)C(=O)N[C@@H](CC(=O)O)C(=O)N[C@@H](CC(C)C)C(=O)N[C@H](C(N)=O)CSC3` [BCY16494, (SEQ ID NO: 62)], the Kd worked out at 2820 nM on CD16a (V Variant) and 2870 nM on CD16a (F Variant).
With `CC(C)C[C@@H]1NC(=O)[C@@H]2CCCN2C(=O)[C@H](Cc2c[nH]cn2)NC(=O)[C@@H]2CSCCC(=O)N3CN(CN(C3)C(=O)CCSC[C@H](NC(=O)[C@H](C)N)C(=O)N3CCC[C@H]3C(=O)N3CCC[C@H]3C(=O)N[C@@H](C)C(=O)N[C@@H](C(C)C)C(=O)N[C@@H](Cc3ccc(O)cc3)C(=O)N2)C(=O)CCSC[C@@H](C(=O)N[C@@H](C)C(N)=O)NC(=O)[C@H](CC(=O)O)NC1=O` [BCY11673, A-(SEQ ID NO: 169)-A] (H-ACPPAVYCHPLDCA-NH2; linker 2-8-13 via TATA; C-terminus assumed), the Kd was determined as 3310 nM on CD16a (V Variant) (setting [1]) and 17100 nM at CD16a (F Variant) (setting [2]).
For `CC(C)C[C@@H]1NC(=O)[C@@H]2CCCN2C(=O)[C@H](Cc2c[nH]cn2)NC(=O)[C@@H]2CSCCC(=O)N3CN(CN(C3)C(=O)CCSC[C@H](NC(=O)[C@H](C)N)C(=O)N3CCC[C@H]3C(=O)N3CCC[C@H]3C(=O)N[C@@H]([C@@H](C)O)C(=O)N[C@@H](C(C)C)C(=O)N[C@@H](Cc3ccc(O)cc3)C(=O)N2)C(=O)CCSC[C@@H](C(=O)N[C@@H](C)C(=O)N(C)CC(=O)N(C)CC(=O)N(C)CC(=O)N(C)CC(=O)N(C)CC(=O)N(C)CC(=O)N[C@@H](CCCCNC(=O)CCCC[C@@H]2SC[C@@H]3NC(=O)N[C@@H]32)C(N)=O)NC(=O)[C@H](CC(=O)O)NC1=O` [BCY12621, A-(SEQ ID NO: 60)-A-[Sar6]-[KBiot]], on CD16a (V Variant) (setting [1]), the Kd is 1900 nM.
As for `CC(C)C[C@@H]1NC(=O)[C@@H]2CCCN2C(=O)[C@H](Cc2c[nH]cn2)NC(=O)[C@@H]2CSCCC(=O)N3CN(CN(C3)C(=O)CCSC[C@H](NC(=O)[C@H](C)N)C(=O)N3CCC[C@H]3C(=O)N3CCC[C@H]3C(=O)N[C@@H](CCC(=O)O)C(=O)N[C@@H](C(C)C)C(=O)N[C@@H](Cc3c[nH]c4ccccc34)C(=O)N2)C(=O)CCSC[C@@H](C(=O)N[C@@H](C)C(N)=O)NC(=O)[C@H](CC(=O)O)NC1=O` [BCY11811, A-(SEQ ID NO: 172)-A] (H-ACPPEVWCHPLDCA-NH2; linker 2-8-13 via TATA), the Kd was 1230 nM at CD16a (V Variant) (setting [1]) and 8240 nM at CD16a (F Variant) (setting [2]).
For the molecule `CC(C)C[C@@H]1NC(=O)[C@@H]2CCCN2C(=O)[C@H](Cc2c[nH]cn2)NC(=O)[C@@H]2CSCCC(=O)N3CN(CN(C3)C(=O)CCSC[C@H](NC(=O)[C@H](C)N)C(=O)N3CCC[C@H]3C(=O)N3CCC[C@H]3C(=O)N[C@@H](CCC(=O)O)C(=O)N[C@@H](C(C)C)C(=O)N[C@@H](Cc3ccccc3)C(=O)N2)C(=O)CCSC[C@@H](C(=O)N[C@@H](C)C(N)=O)NC(=O)[C@H](CC(=O)O)NC1=O` [BCY11809, A-(SEQ ID NO: 170)-A] (H-ACPPEVFCHPLDCA-NH2; linker 2-8-13 via TATA; N-terminus and C-terminus assumed), the figures for the Kd on CD16a (V Variant) (setting [1]) and on CD16a (F Variant) (setting [2]) were 4330 nM and 28600 nM, respectively.
In turn, `C[C@H](N)C(=O)N[C@H]1CSCc2nc3nc(n2)CSC[C@H](NC(=O)[C@@H]2CCCN2C(=O)[C@H](CCC(=O)O)NC(=O)[C@H](CO)NC(=O)[C@H](Cc2ccccc2)NC(=O)[C@H](Cc2c[nH]cn2)NC(=O)[C@H](Cc2c[nH]c4ccccc24)NC(=O)[C@H](CCCNC(=N)N)NC1=O)C(=O)N[C@H](C)C(=O)N[C@@H](C)C(=O)N[C@@H](Cc1c[nH]c2ccccc12)C(=O)N[C@H](C(=O)N[C@@H](C)C(N)=O)CSC3` [BCY20392, A-(SEQ ID NO: 235)-A] (H-ACRWHFSEPC[dA]AWCA-NH2; linker 2-10-14 via X1; C-terminus assumed) had a Kd on CD16a (V Variant) of 385 nM.
Take `CC(C)C[C@@H]1NC(=O)[C@@H]2CCCN2C(=O)[C@H](Cc2c[nH]cn2)NC(=O)[C@@H]2CSCCC(=O)N3CN(CN(C3)C(=O)CCSC[C@H](NC(=O)[C@H](C)N)C(=O)N3CCC[C@H]3C(=O)N3CCC[C@H]3C(=O)N[C@@H](CCC(=O)O)C(=O)N[C@@H](C(C)C)C(=O)N[C@@H](Cc3c[nH]c4ccccc34)C(=O)N2)C(=O)CCSC[C@@H](C(=O)N[C@@H](C)C(=O)N(C)CC(=O)N(C)CC(=O)N(C)CC(=O)N(C)CC(=O)N(C)CC(=O)N(C)CC(=O)N[C@@H](CCCCNC(=O)CCCC[C@@H]2SC[C@@H]3NC(=O)N[C@@H]32)C(N)=O)NC(=O)[C@H](CC(=O)O)NC1=O` [BCY12622, A-(SEQ ID NO: 174)-A-[Sar6]-[KBiot]] (H-ACPPEVWCHPLDCA[Sar][Sar][Sar][Sar][Sar][Sar]K(Biotin)-NH2; linker 2-8-13 via TATA; N-terminus assumed): the figures for the Kd on CD16a (V Variant) (setting [1]) and at CD16a (F Variant) (setting [2]) were 4000 nM and 1000 nM, respectively.
On to `CC(C)C[C@@H]1NC(=O)[C@@H]2CCCN2C(=O)[C@H](Cc2c[nH]cn2)NC(=O)[C@@H]2CSCCC(=O)N3CN(CN(C3)C(=O)CCSC[C@H](NC(=O)[C@H](C)N)C(=O)N3CCC[C@H]3C(=O)N3CCC[C@H]3C(=O)N[C@@H](CCC(N)=O)C(=O)N[C@@H](C(C)C)C(=O)N[C@@H](Cc3ccc(O)cc3)C(=O)N2)C(=O)CCSC[C@@H](C(=O)N[C@@H](C)C(N)=O)NC(=O)[C@H](CC(=O)O)NC1=O` [BCY11812, A-(SEQ ID NO: 173)-A] (H-ACPPQVYCHPLDCA-NH2; linker 2-8-13 via TATA; C-terminus assumed), for which the Kd came out at 2400 nM at CD16a (V Variant) (setting [1]) and 11800 nM on CD16a (F Variant) (setting [2]).
At CD16a (F Variant), `C[C@H](N)C(=O)N[C@H]1CSCc2nc3nc(n2)CSC[C@H](NC(=O)[C@@H]2CCCN2C(=O)[C@H](CCC(=O)O)NC(=O)[C@H](CO)NC(=O)[C@@H]2CCN2C(=O)[C@H](Cc2c[nH]cn2)NC(=O)[C@H](Cc2c[nH]c4ccccc24)NC(=O)[C@H](CCCNC(=N)N)NC1=O)C(=O)NCC(=O)N[C@@H](C)C(=O)N[C@@H](Cc1c[nH]c2ccccc12)C(=O)N[C@H](C(=O)N[C@@H](C)C(N)=O)CSC3` [BCY20382, A-(SEQ ID NO: 227)-A] registered a Kd of 385 nM.
Turning to `CC(C)C[C@@H]1NC(=O)[C@@H]2CCCN2C(=O)[C@H](Cc2c[nH]cn2)NC(=O)[C@@H]2CSCCC(=O)N3CN(CN(C3)C(=O)CCSC[C@H](NC(=O)[C@H](C)N)C(=O)N3CCC[C@H]3C(=O)N3CCC[C@H]3C(=O)N[C@@H](CCC(=O)O)C(=O)N[C@@H](C(C)C)C(=O)N[C@@H](Cc3ccc(O)cc3)C(=O)N2)C(=O)CCSC[C@@H](C(=O)N[C@@H](C)C(N)=O)NC(=O)[C@H](CC(=O)O)NC1=O` [BCY11810, A-(SEQ ID NO: 171)-A] (H-ACPPEVYCHPLDCA-NH2; linker 2-8-13 via TATA), the Kd on CD16a (V Variant) (setting [1]) was determined as 832 nM; at CD16a (F Variant) (setting [2]), 3610 nM.
The molecule `CC(C)[C@@H]1NC(=O)[C@H](CO)NC(=O)[C@H](Cc2c[nH]c3ccccc23)NC(=O)[C@H](CCCNC(=N)N)NC(=O)[C@@H](NC(=O)[C@H](C)N)CSCc2nc3nc(n2)CSC[C@H](NC(=O)[C@@H]2CCCN2C(=O)[C@H](CC(=O)O)NC(=O)[C@H](CCC(=O)O)NC1=O)C(=O)N[C@H](C)C(=O)N[C@@H](C)C(=O)N[C@@H](Cc1c[nH]c2ccccc12)C(=O)N[C@H](C(=O)N[C@@H](C)C(N)=O)CSC3` [BCY14956, A-(SEQ ID NO: 178)-A] (H-ACRWSVEDPC[dA]AWCA-NH2; linker 2-10-14 via X1; N-terminus assumed) returned a Kd at CD16a (V Variant) of 2150 nM.
